For this assay, the system named is Raf-1^gof intestinal tumors. As to conditions: assessed three days later; for Log2 (fold) (luciferase activity, log2 of the fold difference relative to DMSO controls) / Fold (luciferase activity, fold difference relative to DMSO controls): screen of 480 ICCB compounds in vials, compounds fed to flies with one-day old Raf-1^gof tumors, esg-Gal4 luciferase; for Fold (luciferase activity, fold difference relative to DMSO controls) / Fold (luciferase activity relative to DMSO controls): averaged from multiple wells; for Log2 (fold) of luciferase activity relative to DMSO controls / Fold (luciferase activity relative to DMSO controls): ICCB compounds fed in vials to flies with one-day old Raf-1^gof tumors.

Structures are written as SMILES.
Also: test concentration or dose not given here.

In the case of `Cc1ccc(S(=O)(=O)NC(=O)NN2CCCCCC2)cc1` [TOLAZAMIDE], the “Log2 (fold) (luciferase activity, log2 of the fold difference relative to DMSO controls)” value was −0.365 and the “Fold (luciferase activity, fold difference relative to DMSO controls)” value worked out at 0.776.
For `C=C1[C@@H](C)[C@H]2[C@H](Cc3ccccc3)NC(=O)[C@]23[C@H](OC(C)=O)/C=C/[C@@](C)(O)C(=O)[C@@H](C)C/C=C/[C@H]3[C@@H]1O` [cytochalasin D], in that order: −0.276 and 0.826.
On to `O=Cc1c2[nH]c3ccccc3c2cc2[nH]c3ccccc3c12` [6-FORMYLINDOLO [3,2-B] CARBAZOLE], for which the “Log2 (fold) (luciferase activity, log2 of the fold difference relative to DMSO controls)” value was −0.273 and the “Fold (luciferase activity, fold difference relative to DMSO controls)” value stood at 0.828.
For `CC1=C(/C=C/C(C)=C\C=C\C(C)=C\C(=O)O)C(C)(C)CCC1` [9-CIS RETINOIC ACID], in that order: −0.578 and 0.670.
`Nc1ncnc2c1nc(Br)n2C1O[C@H]2COP(=O)(O)O[C@@H]2[C@@H]1O` (stereo partly drawn) [Bromo-cAMP [8-Bromo-cAMP]]: the “Log2 (fold) of luciferase activity relative to DMSO controls” value is recorded as −0.045 and the “Fold (luciferase activity relative to DMSO controls)” value is on record as 0.969 fold.
Turning to `CCCCCCCCCCCCCC(=O)O[C@@H]1[C@@H](C)[C@@]2(O)[C@@H](C=C(CO)C[C@]3(O)C(=O)C(C)=C[C@@H]23)[C@@H]2C(C)(C)[C@]12OC(C)=O` [phorbol 12 myristate 13 acetate], the “Log2 (fold) (luciferase activity, log2 of the fold difference relative to DMSO controls)” value was −0.323 and the “Fold (luciferase activity, fold difference relative to DMSO controls)” value stood at 0.799.
As to `C=C1CC[C@H](O)C/C1=C/C=C1\CCC[C@]2(C)[C@@H]([C@H](C)CCCC(C)(C)O)CC[C@@H]12` [25-HYDROXYVITAMIN D3], the “Log2 (fold) of luciferase activity relative to DMSO controls” value was −0.113 and the “Fold (luciferase activity relative to DMSO controls)” value turned out to be 0.925 fold.
For `CCCCC/C=C\C\C=C/C=C/C=C/[C@@H](SC[C@H](NC(=O)CC[C@H](N)C(=O)O)C(=O)NCC(=O)O)[C@@H](O)CCCC(=O)O` [LEUKOTRIENE C4], in that order: 0.114 and 1.082 fold.
With `C[C@]12C=CC(=O)C=C1CC[C@@H]1C2=CC[C@]2(C)[C@@H](C(=O)CN3CCN(c4cc(N5CCCC5)nc(N5CCCC5)n4)CC3)CC[C@@H]12.O=C(O)/C=C\C(=O)O` [U-74389G], the “Log2 (fold) (luciferase activity, log2 of the fold difference relative to DMSO controls)” value is given as −0.462 and the “Fold (luciferase activity, fold difference relative to DMSO controls)” value is reported as 0.726.
In the same order, the values of `Cc1ccc(S(=O)(=O)N[C@@H](Cc2ccccc2)C(=O)CCl)cc1` [Tosyl-Phe-CMK (TPCK)] are −0.233 and 0.851.
For `O=C(NCCCCCCNC(=O)ON=C1CCCCC1)ON=C1CCCCC1` [RHC-80267], in that order: −0.279 and 0.824.
`COC(=O)c1c(C)[nH]c(C)c1C(=O)c1ccccc1Cc1ccccc1` [FPL-64176]: the “Log2 (fold) of luciferase activity relative to DMSO controls” value is recorded as −0.166 and the “Fold (luciferase activity relative to DMSO controls)” value is listed as 0.891 fold.
For the compound `CCCCC[C@H](O)/C=C/[C@@H]1[C@@H](CCCCCCC(=O)O)[C@@H](O)C[C@H]1O` [PROSTAGLANDIN F1a], the “Log2 (fold) of luciferase activity relative to DMSO controls” value is recorded as −0.208 and the “Fold (luciferase activity relative to DMSO controls)” value came out at 0.866 fold.
In the same order, the values of `CCCCC[C@@H](/C=C/C=C\C/C=C\C/C=C\CCCC(=O)O)OO` [15(S)-HPETE] are 0.361 and 1.285 fold.
For `C=C[C@H]1C[N@@]2CC[C@H]1C[C@H]2[C@H](O)c1ccnc2ccc(OC)cc12` [QUININE], in that order: −0.201 and 0.870 fold.

The record behind these values is patent publication US20130096067A1, “DROSOPHILA TUMOR STEM CELL MODEL AND USES THEREOF” (priority 2011, published 2013).
